Reference: publication PMC10518020, “Structure of the peroxisomal Pex1/Pex6 ATPase complex bound to a substrate” (Nature Communications, 2023)

Target: T1, Pex1/Pex6_WB (Pex1-Strep2/His-Pex6(E832Q)) heterohexamer (Saccharomyces cerevisiae, UniProt P24004+P33760, P33760:E832Q)
T1 construct: full-length Pex1 with C-terminal Strep2 tag and Pex6(E832Q, D2 Walker B) with N-terminal His tag, co-expressed in S. cerevisiae MH 272/3f alpha; heterohexamer of alternating Pex1 and Pex6 (trimer of dimers); endogenous peptide trapped in D2 pore
T1 sequence (P24004 1-1043): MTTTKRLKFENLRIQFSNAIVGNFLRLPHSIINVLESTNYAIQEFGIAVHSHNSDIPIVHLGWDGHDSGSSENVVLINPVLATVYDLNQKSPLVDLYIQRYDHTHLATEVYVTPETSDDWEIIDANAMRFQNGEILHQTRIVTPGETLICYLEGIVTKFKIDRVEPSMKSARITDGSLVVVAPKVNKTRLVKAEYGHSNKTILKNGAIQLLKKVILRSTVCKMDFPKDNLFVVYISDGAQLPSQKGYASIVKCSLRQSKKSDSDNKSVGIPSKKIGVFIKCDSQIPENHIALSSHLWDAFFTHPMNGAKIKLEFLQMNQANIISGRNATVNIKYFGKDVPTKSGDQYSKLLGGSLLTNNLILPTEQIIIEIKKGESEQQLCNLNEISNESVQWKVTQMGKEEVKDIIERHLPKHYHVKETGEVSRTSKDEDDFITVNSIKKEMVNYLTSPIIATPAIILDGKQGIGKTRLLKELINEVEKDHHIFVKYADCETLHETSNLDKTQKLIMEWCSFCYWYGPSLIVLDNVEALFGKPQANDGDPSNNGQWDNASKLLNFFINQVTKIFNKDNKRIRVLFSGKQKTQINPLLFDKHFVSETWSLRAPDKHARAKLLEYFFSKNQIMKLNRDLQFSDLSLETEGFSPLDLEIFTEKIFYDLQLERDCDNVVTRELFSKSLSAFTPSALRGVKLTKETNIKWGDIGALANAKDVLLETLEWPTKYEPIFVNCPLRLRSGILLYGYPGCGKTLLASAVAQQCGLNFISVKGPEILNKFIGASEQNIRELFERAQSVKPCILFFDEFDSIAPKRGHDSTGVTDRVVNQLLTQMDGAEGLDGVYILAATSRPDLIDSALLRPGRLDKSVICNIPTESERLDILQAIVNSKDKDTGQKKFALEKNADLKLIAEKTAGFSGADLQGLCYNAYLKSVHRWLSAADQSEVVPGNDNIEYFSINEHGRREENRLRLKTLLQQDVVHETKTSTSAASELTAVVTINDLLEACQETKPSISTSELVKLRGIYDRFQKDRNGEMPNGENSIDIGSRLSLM
T1 sequence (P33760 1-1030 E832Q): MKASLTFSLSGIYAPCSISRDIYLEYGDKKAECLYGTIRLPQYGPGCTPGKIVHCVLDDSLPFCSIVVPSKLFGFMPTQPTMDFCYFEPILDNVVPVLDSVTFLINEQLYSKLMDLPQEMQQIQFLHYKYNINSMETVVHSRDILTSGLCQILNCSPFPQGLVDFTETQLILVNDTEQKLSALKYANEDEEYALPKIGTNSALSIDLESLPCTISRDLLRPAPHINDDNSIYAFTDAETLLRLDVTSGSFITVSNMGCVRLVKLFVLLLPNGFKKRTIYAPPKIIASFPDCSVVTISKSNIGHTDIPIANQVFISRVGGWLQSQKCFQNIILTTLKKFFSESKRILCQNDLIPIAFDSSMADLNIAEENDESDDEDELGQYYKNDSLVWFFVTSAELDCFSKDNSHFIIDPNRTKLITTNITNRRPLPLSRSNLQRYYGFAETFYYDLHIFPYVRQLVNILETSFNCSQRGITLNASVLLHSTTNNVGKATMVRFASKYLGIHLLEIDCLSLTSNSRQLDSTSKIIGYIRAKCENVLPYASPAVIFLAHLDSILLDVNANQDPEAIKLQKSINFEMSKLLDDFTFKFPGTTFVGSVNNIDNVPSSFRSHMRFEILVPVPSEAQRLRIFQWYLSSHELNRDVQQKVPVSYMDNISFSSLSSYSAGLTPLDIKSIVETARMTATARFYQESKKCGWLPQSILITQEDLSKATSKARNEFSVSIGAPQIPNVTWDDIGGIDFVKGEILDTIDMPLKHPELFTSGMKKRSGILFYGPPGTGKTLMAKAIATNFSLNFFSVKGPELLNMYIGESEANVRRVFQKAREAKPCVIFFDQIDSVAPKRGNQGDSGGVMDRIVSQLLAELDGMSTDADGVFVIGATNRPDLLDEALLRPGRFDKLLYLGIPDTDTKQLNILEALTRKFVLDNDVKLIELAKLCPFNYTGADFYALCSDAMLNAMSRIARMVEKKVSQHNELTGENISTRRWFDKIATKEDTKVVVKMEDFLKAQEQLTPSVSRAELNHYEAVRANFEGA
Assay: cryo-EM structure
Assay type: binding

| Compound | cryo-EM structure (D2 sites of bottom and seam subunits, nucleotide assigned from density and pocket opening, not with absolute confidence, no ADP added (ATP in purification)) | cryo-EM structure (Mg2+, 1-3 mM ATP in purification, bound at all six D1 sites (not hydrolysed) and at D2 sites of the substrate-engaged subunits, single-seam 8C0V and twin-seam 8C0W) |
| --- | --- | --- |
| Nc1ncnc2c1ncn2[C@@H]1O[C@H](COP(=O)(O)OP(=O)(O)O)[C@@H](O)[C@H]1O [ADP] | D2 domains are indeed in an ADP-bound state |  |
| Nc1ncnc2c1ncn2[C@@H]1O[C@H](COP(=O)(O)OP(=O)(O)OP(=O)(O)O)[C@@H](O)[C@H]1O [ATP] |  | all ATPase domains of the D1 ring are bound to ATP |
